Test results from patent publication US20230181657A1, “NOVEL LACTIC ACID BACTERIA AND USE THEREOF” (UNIVERSITY- INDUSTRY COOPERATION GROUP OF KYUNG HEE …, priority 2018, published 2023).

Legend:
Type in all cases: in vivo
SREBP-1c = SREBP-1c expression in liver by qPCR, ovariectomized obesity model; conditions: liver mRNA, qPCR in comparison with β-actin; mice with removed ovaries; bacteria 1×10^9 CFU orally, PC 10 μg/kg/day intraperitoneally; Nor 1.0 ± 0.1, Con 4.5 ± 0.5
Method: (§1) An experiment was performed by using six C57BL/6 mice (female, 21-23 g and 6 weeks old) per group after being acclimated in a laboratory for one week as described above in (1) of Example 2. After the mice were anesthetized with isoflurane and the ovaries were removed therefrom, the resulting mice were raised for six weeks so as to create an animal model with obesity, showing a significant weight gain. From one week after ovarian removal, Lactobacillus plantarum NK3, Bifidobacterium longum NK49, a 1:1 mixture thereof, or a 4:1 mixture thereof, which is a novel lactic acid bacterium, was orally administered in a daily amount of 1×10^9 CFU for six days a week for five weeks. In addition, 17β-estradiol (PC) was intraperitoneally administered at 10 μg/kg/day to the experimental animals of the positive control group, and the sham group and the experimental group with removed ovaries were orally dosed with physiological saline solution instead of drugs. […] The body weight was measured once a week. An expression of sterol regulatory element-binding transcription factor 1c (SREBP-1c) and peroxisome proliferator-activated receptor gamma coactivator 1-alpha (PGC-1α) was measured by using a quantitative reverse transcription polymerase chain reaction (qPCR). […] The amount of final expressed genes was calculated in comparison with β-actin.

[1] = test system: animal model with osteoporosis (C57BL/6 mice with removed ovaries); assay: Osteoporosis indices in blood (AP activity, Ca, P, osteocalcin) of ovariectomized mice; conditions: bacteria 1×10^9 CFU orally for five weeks
Method: An experiment was performed by using six C57BL/6 mice (female, 21-23 g and 6 weeks old) per group after being acclimated in a laboratory for one week. After the mice were anesthetized with isoflurane, the ovaries were removed therefrom to create an animal model with osteoporosis. From one week after ovarian removal, Lactobacillus plantarum NK3, Bifidobacterium longum NK49, a 1:1 mixture thereof, or a 4:1 mixture thereof (a ratio of LP:BL is 4:1 and the same as below), which is a novel lactic acid bacterium, was orally administered in a daily amount of 1×10^9 CFU for six days a week for five weeks. In addition, 17β-estradiol (PC) was intraperitoneally administered at 10 μg/kg/day to the experimental animals of the positive control group, and the sham group and the experimental group with removed ovaries were orally dosed with physiological saline solution instead of drugs.
On the day after the administration of lactic acid bacteria was completed, the experimental animals were sacrificed, and then blood, thighbone, colon, womb, and liver were separated therefrom so as to measure osteoporosis indices.
Osteocalcin in blood was measured with R&D system ELISA Kit (Minneapolis, Minn., USA); Ca and P were measured with ASAN Ca-Lq Reagents and ASAN Pi-Lq Reagents of Asan Pharmaceutical Co., Ltd, respectively; and alkaline phosphatase (AP) activity was measured with Alkaline phosphatase activity colorimetric assay kit (Sigma, USA).

PGC-1α = PGC-1α expression in liver by qPCR, ovariectomized obesity model; conditions: liver mRNA, qPCR in comparison with β-actin; mice with removed ovaries; bacteria 1×10^9 CFU orally, PC 10 μg/kg/day intraperitoneally; Nor 1.0 ± 0.1, Con 0.6 ± 0.2
Method: as §1

C[C@]12CC[C@@H]3c4ccc(O)cc4CC[C@H]3[C@@H]1CC[C@@H]2O [PC, 17β-estradiol]
SREBP-1c expression (SREBP-1c): 2.7 ± 0.3 | Osteocalcin in blood ([1]; PC 10 μg/kg/day intraperitoneally, Con 1.85 ± 0.32): 1.53 ± 0.15 µg/L | Ca in blood ([1]; PC 10 μg/kg/day intraperitoneally, Con 6.4 ± 0.4): 6.2 ± 0.2 mg/dL | P in blood ([1]; PC 10 μg/kg/day intraperitoneally, Con 12.5 ± 1.5): 12.1 ± 1.1 mg/dL | AP (alkaline phosphatase activity in blood) ([1]; PC 17β-estradiol 10 μg/kg/day intraperitoneally, Con 282.2 ± 10.3): 220.6 ± 10.3 IU/L | PGC-1α expression (PGC-1α): 0.8 ± 0.2
